Blank lines part the entries; values can stand above or below the compound they belong to.
What was measured:
[1] = target: T1, thromboxane synthetase (Homo sapiens, UniProt P24557); assay: in vitro inhibition of the thromboxane synthetase enzyme; format: biochemical; conditions: ratio TxB2/PGF2α+β reduced to 50% of control
T1 construct: crude microsomal preparation of thromboxane synthetase from lysed human platelets; from tissue; host or cells: lysed human platelets, crude microsomal preparation
T1 sequence (P24557 1-533): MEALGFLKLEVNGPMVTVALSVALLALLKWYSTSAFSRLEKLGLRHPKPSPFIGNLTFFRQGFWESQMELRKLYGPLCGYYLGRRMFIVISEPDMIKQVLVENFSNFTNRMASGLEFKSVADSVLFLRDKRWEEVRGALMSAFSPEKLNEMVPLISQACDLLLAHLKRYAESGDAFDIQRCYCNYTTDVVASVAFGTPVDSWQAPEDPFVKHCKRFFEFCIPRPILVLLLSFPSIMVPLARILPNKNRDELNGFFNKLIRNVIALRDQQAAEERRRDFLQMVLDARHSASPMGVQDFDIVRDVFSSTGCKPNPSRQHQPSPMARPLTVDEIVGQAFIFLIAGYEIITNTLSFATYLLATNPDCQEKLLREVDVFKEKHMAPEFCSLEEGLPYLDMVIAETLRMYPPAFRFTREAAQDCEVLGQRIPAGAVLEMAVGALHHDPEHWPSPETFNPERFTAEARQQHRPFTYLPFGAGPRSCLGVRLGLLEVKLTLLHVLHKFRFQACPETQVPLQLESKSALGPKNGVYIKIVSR
Experimental: Res. Comm. 74, 1432 (1977); the testi g procedure is as follows:
^14 C-Archidonic acid is incubated with an enzyme consisting of solubilized and partially purified prostaglandin cyclo-oxygenase from sheep seminal vesicles and a crude microsomal preparation of thromboxane synthetase from lysed human platelets. The test compound (dissolved in buffer, or if necessary, in a small amount of ethanol) is added to the incubation medium. At the end of the incubation period (30 minutes), Prostaglandin E2 (PGE2) is reduced to a mixture of Prostaglandin F2 α and F2 β (PGF2α+β) by addition of sodium borohydride. The radioactive products and excess substrate are extracted into ethyl acetate; the extract is evaporated to dryness; the residue is dissolved in acetone, spotted on thin-layer plates and chromatographed in the solvent system toluene:acetone:glacial acetic acid (100 volumes:100 volumes:3 volumes). The radioactive zones are located; those corresponding to Thromboxane B2 (TxB2) and PGF2 α+β are transferred to liquid scintillatiopn vials and counted. The ratio of counts for TxB2 /PGF2 α+β is calculated for each concentration of test compound and IC50 values are determined graphically as the concentration of test compound at which the ratio of TxB2 /PGF2 α+β is reduced to 50% of the control value.

[2] = test system: thrombocytopenia; assay: inhibition of thrombocytopenia
[3] = test system: thromboxane B2; assay: plasma levels of thromboxane B2 in vivo after ionophore A23187 in rats; conditions: rat, oral dose as low as 0.10 mg/kg
Experimental: (§1) The inhibition of the synthesis and the reduction of plasma levels of thromboxane is determined in vivo on administration to rats in the following manner (as adapted from the procedures described by Tai et al. in Anal. Biochem. 87:343, 1978 and by Salmon in Prostaglglandins 15:383, 1978):
(§2) Rats are dosed with vehicle or test drug and injected intravenously with ionophore A23187 (0.5 mg/kg) two hours later. Blood is collected for analysis 2 minutes after the ionophore injection. A single aliquot of each plasma sample is assayed for thromboxane B2 and another aliquot for 6-keto-PGF1 α, the stable metabolites of thromboxane A2 and prostacyclin (PGI2) respectively, by radioimmunoassay.

[4] = target: T2, prostaglandin cyclooxygenase (Ovis aries, UniProt P05979); assay: in-vitro effect on prostaglandin cyclooxygenase; format: biochemical, sheep; conditions: 50% reduction in PGE2 synthesized, read-out: IC50 for inhibition of cyclooxygenase
T2 construct: Lyophilized sheep seminal vesicle microsomes are utilized as the prostaglandin-synthesizing enzyme preparation; from tissue; host or cells: lyophilized sheep seminal vesicle microsomes
T2 sequence (P05979 25-600): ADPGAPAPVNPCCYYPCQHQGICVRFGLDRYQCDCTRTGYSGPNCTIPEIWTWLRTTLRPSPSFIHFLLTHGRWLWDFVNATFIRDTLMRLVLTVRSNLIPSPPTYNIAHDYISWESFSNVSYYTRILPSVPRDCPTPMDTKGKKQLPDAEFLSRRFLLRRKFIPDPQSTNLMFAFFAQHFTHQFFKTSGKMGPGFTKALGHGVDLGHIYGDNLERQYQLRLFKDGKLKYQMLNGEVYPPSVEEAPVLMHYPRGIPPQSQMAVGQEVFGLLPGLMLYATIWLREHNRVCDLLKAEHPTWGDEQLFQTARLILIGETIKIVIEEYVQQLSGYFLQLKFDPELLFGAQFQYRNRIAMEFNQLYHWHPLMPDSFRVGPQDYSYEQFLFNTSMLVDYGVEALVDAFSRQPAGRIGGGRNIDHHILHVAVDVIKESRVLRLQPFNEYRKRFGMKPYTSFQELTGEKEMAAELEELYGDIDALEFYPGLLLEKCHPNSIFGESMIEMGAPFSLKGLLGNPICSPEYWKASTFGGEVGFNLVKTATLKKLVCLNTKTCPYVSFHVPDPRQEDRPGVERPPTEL
Experimental: The in-vitro effect on prostaglandin cyclooxygenase is measured by a modification of the method of Takeguchi et al. described in Biochemistry 10, 2372 (1971); the testing procedure is as follows: Lyophilized sheep seminal vesicle microsomes are utilized as the prostaglandin-synthesizing enzyme preparation. The conversion of ^14 C-arachidonic acid to PGE2 is measured. Test compounds (dissolved in buffer, or if necessary, in small amount of ethanol) are added to the incubation mixture. The prostaglandins are extracted and separated by thin-layer chromatography; the plates are scanned, the radioactive zones corresponding to PGE2 are transferred to liquid scintillation vials and counted for radioactivity. IC50 values for inhibition are determined graphically as the concentration of test compound causing a 50% reduction in the amount of PGE2 synthesized.

[5] = prolongation of bleeding time in the rat; format: in vivo; conditions: oral, dose of about 30 mg/kg
Text: Experimentally, prolongation of bleeding time in the rat is indicative of a beneficial antithrombotic effect.

[6] = test system: prostacyclin (PGI2); assay: plasma levels of prostacyclin in vivo after ionophore A23187 in rats; conditions: rat, oral dose 0.10 mg/kg or higher
Experimental: as §1, §2

[7] = test system: platelet aggregation; assay: inhibition of variously induced platelet aggregation
[8] = target: T3, prostacyclin (PGI2) synthetase (Bos taurus, UniProt Q29626); assay: in-vitro effect on prostacyclin (PGI2) synthetase; format: biochemical, bovine; conditions: ratio 6-keto-PGF1α/PGE2 reduced to 50% of control, read-out: IC50 for inhibition of prostacyclin synthetase
T3 construct: crude PGI2 synthetase in the form of a microsomal fraction of bovine aorta; from tissue; host or cells: bovine aorta, microsomal fraction
T3 sequence (Q29626 1-500): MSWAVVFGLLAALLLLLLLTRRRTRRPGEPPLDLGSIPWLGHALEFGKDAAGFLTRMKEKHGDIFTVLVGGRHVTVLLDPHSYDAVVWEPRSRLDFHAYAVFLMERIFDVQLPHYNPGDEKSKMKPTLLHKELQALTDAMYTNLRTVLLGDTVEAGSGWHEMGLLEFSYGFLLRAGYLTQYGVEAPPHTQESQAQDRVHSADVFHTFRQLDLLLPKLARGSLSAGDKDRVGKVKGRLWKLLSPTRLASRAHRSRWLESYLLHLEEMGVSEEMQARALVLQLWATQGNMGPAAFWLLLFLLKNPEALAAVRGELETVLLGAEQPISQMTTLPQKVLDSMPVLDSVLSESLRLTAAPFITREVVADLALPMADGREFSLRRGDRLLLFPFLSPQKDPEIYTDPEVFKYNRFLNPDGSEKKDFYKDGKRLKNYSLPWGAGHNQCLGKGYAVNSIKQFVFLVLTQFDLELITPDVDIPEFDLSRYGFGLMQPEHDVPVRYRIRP
Experimental: The in-vitro effect on prostacyclin (PGI2) synthetase is measured analogous to the method of Sun et al., Prostaglandins 14, 1055 (1977);
The testing procedure is as follows:
^14 C-Arachidonic acid is incubated with an enzyme mixture consisting of solubilized and partially purified prostaglandin cyclo-oxygenase from sheep seminal vesicles and crude PGI2 synthetase in the form of a microsomal fraction of bovine aorta.
Test compound (dissolved in buffer, or if necessary, in a small amount of ethanol) is placed in the incubation medium. The reaction mixture is incubated in 100 mM Tris HCl (pH 7.5) for 30 minutes at 37° C., acidified to pH 3 and extracted into ethyl acetate. The extract is evaporated to dryness; the residue is dissolved in acetone, spotted on thin-layer plates and chromatographed in a solvent system described in Sun et al. The radioactive zones are located with a scanner; those corresponding to 6-keto-PGF1 α (a stable end product of prostacyclin biotransformation) and PGE2 are transferred to liquid scintillation vials and counted. The ratio of counts for 6-keto-PGF1 α/PGE2 is calculated for each concentration of test compound used. IC50 values for inhibition are determined graphically as the concentration of test compound at which the ratio of 6-keto-PGF1 α/PGE2 is reduced to 50% of the control value.

[9] = test system: arachidonic acid induced pulmonary obstruction; assay: protection against sudden death due to arachidonic acid induced pulmonary obstruction; format: in vivo; conditions: mice, oral, 100 mg/kg

Compound: Cc1c(-c2cccnc2)n(CCCCCC(=O)O)c2ccc(CCC(=O)O)cc12 [Example 9, 1-(5-carboxypentyl)-5-(2-carboxyethyl)-3-methyl-2-(3-pyridyl)indole]
IC50 [1]: 20 nM

Compound: Cc1c(-c2cccnc2)n(Cc2ccc(C(=O)O)cc2)c2ccccc12 [Example 11, 1-(4-carboxybenzyl)-3-methyl-2-(3-pyridyl)indole]
IC50 [1]: 50 nM

Compound: Cc1c(-c2cccnc2)n(CCCCCCCC(=O)O)c2ccccc12 [Example 1, 1-(7-carboxyheptyl)-3-methyl-2-(3-pyridyl)indole]
inhibition of thrombocytopenia [2]: inhibits | decrease of the plasma concentration of thromboxane B2 [3]: over 50% | IC50 [4]: ~100000 nM | bleeding time [5]: prolongs bleeding time | plasma level of prostacyclin [6]: a surprising increase | inhibition of variously induced platelet aggregation [7]: inhibits | IC50 [8]: ~100000 nM | protection against sudden death [9]: protects against sudden death

Further lines, results first:

IC50 [1]: 10 nM
Compound: Cc1c(-c2cccnc2)n(CCCCCC(N)=O)c2ccc(Cl)cc12 [Example 13, 1-(5-carbamoylpentyl)-5-chloro-3-methyl-2-(3-pyridyl)indole]

IC50 [1]: 1 nM
Compound: Cc1c(-c2cccnc2)n(CCCCCC(=O)O)c2ccc(Cl)cc12 [Example 7, 1-(5-carboxypentyl)-5-chloro-3-methyl-2-(3-pyridyl)indole]

Source: patent publication US4460777A, “N-Substituted-2-pyridylindoles” (Ciba-Geigy Corporation, priority 1982, dated 1984)
